Experimental findings from publication PMC10254649, “Design, Synthesis, and Biological Evaluation of Potent and Selective Inhibitors of Ataxia Telangiectasia Mutated and Rad3-Related (ATR) Kinase for the Efficient Treatment of Cancer” (Molecules, 2023) are described below.

Broadly, the IC50 is the concentration that gives 50% inhibition. The melting point is the temperature of the solid-liquid transition.

In series [1] the target is ATR (Homo sapiens, UniProt Q13535). Kind of series: In vitro inhibitory activity against the ATR enzyme. As to conditions: mean ± SD of two independent experiments; read-out: ATR IC50 ± SD. The class given is biochemical.
Series [2] has as its system A549 cells. Nature of the series: CCK-8 cell proliferation assay, A549. The class given is cell-based. As to conditions: Homo sapiens, CCK-8, 72 h, ATM-normal cell line, three independent experiments, read-out: IC50 ± SD, A549. The method, then:
(§1) A549, HCT116, NCI-H23, and LoVo cells were purchased from the Cell Resources Center of Shanghai Academy of Life Sciences, Shanghai, China. A549 cells were cultured in McCoy’s5A medium supplemented with 10% FBS (KeyGEN Biotech, Nanjing, China) and 1% penicillin/streptomycin (Gibco, 15070-063). HCT116 cells were cultured in IMDM medium supplemented with 10% FBS (KeyGEN Biotech, Nanjing, China) and 1% penicillin/streptomycin (Gibco, 15070-063). NCI-H23 cells were cultured in RPMI 1640 medium supplemented with 10% FBS (KeyGEN Biotech, Nanjing, China) and 1% penicillin/streptomycin (Gibco, 15070-063). LoVo cells were cultured in F12K medium supplemented with 10% FBS (KeyGEN Biotech, Nanjing, China) and 1% penicillin/streptomycin (Gibco, 15070-063). All cells were cultured in an incubator at 37 °C under a 5% CO2 atmosphere.
(§2) For the assay, 3000/well cells were planted into 96-well plates for 24 h and then treated with the indicated doses of drugs or controls for 72 h. Following the manufacturer’s instructions, cell proliferation/survival was measured using the CCK-8 (KeyGEN Biotech, Nanjing, China) assay and plotted via GraphPad 8.0.

For series [3], the system named is NCI-H23 cells. Nature of the series: CCK-8 cell proliferation assay, NCI-H23. The class given is cell-based. The following applies: Homo sapiens, CCK-8, 72 h, ATM-deficient cell line, three independent experiments, read-out: IC50 ± SD, NCI-H23. The method, then:
as §1, §2
A general note: Tetrazolium assays rely on reduction of a dye to a coloured formazan, in cell work by metabolically active cells.

Series [4] concerns HCT116 cells. Kind of series: CCK-8 cell proliferation assay, HCT116. As to conditions: Homo sapiens, HCT-116; CCK-8, 72 h, ATM-normal cell line, three independent experiments; read-out: IC50 ± SD, HCT116. The class given is cell-based. The method, then:
as §1, §2

The subject of series [5] is LoVo cells. Nature of the series: CCK-8 cell proliferation assay, LoVo. The class given is cell-based. As to conditions: Homo sapiens, CCK-8, 72 h, ATM-deficient cell line, three independent experiments, read-out: IC50 ± SD, LoVo. The method, then: as §1, §2
Series [6] has as its system LoVo xenografts. Kind of series: LoVo tumor xenograft mouse model, antitumor efficacy and tolerability. The class given is in vivo. The method, then: Balb/c nude mice (18–22 g, female, 4 weeks old) were purchased from Hangzhou Medical College (Hangzhou, China). All mice were inoculated subcutaneously in the right flank with 5 × 10^6 LoVo cells to initiate tumor growth. When the mean tumor volume reached approximately 100 mm^3, all mice were randomly divided into 8 groups (n = 5 per group) based on body weight and volume. […] Cisplatin was administered twice a week at the indicated doses. Tumor size and animal weight were measured every 3 days. Tumor volume was calculated as tumor volume (cm^3) = (length × width^2)/2. Tumor inhibition rate (%) = (1 − mean tumor weight in the treatment group/mean tumor weight in the control group) × 100%. The results were obtained from 5 test mice (mean ± SD) and calculated using GraphPad 8.0 software.

Each structure is given as a SMILES string. Where “and” joins values, the source holds several entries; their conditions need not be identical. Identical values can stand only once.

Sequence of ATR (Q13535 whole entry): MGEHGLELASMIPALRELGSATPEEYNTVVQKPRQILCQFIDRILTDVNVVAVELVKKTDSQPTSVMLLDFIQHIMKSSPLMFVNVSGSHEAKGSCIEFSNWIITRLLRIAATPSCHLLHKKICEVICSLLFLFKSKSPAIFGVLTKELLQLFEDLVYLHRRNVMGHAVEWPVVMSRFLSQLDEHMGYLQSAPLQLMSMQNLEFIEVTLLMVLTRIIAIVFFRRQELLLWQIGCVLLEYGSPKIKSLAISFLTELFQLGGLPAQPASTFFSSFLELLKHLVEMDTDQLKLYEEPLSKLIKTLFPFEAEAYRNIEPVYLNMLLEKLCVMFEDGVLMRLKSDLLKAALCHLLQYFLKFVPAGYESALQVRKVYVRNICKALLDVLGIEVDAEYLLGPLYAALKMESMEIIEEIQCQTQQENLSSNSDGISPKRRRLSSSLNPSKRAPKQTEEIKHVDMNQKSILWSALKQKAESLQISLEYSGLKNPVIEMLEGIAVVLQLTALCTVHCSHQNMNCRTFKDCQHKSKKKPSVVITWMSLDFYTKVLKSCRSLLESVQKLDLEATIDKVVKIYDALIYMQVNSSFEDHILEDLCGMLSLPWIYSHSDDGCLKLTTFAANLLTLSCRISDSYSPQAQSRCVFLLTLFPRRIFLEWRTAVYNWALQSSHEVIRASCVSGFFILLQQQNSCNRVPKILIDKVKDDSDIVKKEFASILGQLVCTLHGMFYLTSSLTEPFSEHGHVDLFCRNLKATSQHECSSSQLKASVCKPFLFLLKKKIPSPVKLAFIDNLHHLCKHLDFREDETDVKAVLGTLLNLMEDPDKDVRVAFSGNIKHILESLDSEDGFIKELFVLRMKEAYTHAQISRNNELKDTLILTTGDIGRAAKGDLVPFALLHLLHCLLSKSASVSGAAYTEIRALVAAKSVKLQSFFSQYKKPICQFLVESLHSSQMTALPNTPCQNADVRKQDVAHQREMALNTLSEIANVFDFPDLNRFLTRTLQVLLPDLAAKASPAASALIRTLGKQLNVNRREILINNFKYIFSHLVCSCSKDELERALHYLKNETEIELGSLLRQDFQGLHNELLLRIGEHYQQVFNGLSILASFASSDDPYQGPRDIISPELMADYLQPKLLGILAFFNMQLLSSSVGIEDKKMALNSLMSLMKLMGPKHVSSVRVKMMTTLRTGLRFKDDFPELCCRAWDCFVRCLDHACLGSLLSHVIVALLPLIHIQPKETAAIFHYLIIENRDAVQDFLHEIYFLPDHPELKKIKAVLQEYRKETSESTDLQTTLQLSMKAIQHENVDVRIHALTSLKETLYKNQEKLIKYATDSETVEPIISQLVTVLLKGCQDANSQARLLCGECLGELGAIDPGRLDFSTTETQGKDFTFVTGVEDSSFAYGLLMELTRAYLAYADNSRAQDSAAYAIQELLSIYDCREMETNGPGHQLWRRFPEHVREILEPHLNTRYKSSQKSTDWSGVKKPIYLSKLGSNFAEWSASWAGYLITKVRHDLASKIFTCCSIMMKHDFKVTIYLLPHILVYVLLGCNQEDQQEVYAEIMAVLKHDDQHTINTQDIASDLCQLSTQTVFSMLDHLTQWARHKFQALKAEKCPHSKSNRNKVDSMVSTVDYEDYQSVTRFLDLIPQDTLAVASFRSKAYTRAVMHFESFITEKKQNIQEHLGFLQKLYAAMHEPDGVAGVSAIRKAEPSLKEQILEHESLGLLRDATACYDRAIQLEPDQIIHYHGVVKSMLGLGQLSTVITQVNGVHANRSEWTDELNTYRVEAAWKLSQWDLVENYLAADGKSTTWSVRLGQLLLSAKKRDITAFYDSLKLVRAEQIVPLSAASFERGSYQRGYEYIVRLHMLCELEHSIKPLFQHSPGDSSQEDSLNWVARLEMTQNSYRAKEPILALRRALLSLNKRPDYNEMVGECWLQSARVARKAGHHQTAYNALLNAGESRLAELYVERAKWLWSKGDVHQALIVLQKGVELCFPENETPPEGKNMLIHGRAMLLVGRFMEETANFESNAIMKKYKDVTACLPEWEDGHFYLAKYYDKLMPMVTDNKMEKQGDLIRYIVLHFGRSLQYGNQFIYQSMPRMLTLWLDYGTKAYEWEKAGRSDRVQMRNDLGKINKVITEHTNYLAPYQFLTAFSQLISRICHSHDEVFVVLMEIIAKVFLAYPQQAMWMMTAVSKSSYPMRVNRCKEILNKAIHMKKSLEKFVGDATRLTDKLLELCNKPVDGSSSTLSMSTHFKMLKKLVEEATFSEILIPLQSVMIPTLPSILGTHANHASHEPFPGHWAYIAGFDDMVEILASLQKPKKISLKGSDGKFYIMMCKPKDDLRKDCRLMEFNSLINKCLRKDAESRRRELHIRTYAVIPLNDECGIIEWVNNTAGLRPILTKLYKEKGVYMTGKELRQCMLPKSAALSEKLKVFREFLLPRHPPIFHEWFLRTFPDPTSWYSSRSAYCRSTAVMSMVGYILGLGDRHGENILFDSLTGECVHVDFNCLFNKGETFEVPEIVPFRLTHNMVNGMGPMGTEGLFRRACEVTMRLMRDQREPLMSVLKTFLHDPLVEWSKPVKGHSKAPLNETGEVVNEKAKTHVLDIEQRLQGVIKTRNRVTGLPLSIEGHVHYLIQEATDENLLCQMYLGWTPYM
Sequence of ATR (Q8WXE1 whole entry partner): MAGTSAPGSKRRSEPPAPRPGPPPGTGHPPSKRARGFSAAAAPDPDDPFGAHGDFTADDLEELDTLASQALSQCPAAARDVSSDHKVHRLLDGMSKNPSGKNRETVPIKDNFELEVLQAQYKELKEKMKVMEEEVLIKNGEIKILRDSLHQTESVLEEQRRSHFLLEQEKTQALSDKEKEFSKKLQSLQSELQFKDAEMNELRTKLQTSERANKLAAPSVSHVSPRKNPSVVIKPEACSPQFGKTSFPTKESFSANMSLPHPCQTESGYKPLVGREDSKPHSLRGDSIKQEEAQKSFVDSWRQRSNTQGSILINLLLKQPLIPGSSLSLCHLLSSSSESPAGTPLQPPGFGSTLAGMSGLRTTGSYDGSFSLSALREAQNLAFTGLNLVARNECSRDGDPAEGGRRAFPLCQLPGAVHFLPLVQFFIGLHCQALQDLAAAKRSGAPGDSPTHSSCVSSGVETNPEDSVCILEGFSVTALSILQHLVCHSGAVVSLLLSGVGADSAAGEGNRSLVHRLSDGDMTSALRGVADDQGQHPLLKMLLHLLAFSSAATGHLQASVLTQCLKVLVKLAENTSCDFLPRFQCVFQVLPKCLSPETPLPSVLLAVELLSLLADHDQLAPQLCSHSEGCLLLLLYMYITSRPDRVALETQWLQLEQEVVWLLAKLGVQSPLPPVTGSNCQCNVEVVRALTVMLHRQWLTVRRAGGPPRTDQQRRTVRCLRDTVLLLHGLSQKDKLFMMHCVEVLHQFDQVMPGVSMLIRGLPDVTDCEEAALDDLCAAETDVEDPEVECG

As to `CCNC(=O)N1CCc2c(nc(-c3cccc4[nH]ccc34)nc2N2CCOC[C@H]2C)C1` [ZH-14, (R)-N-ethyl-2-(1H-indol-4-yl)-4-(3-methylmorpholino)-5,8-dihydropyrido[3,4-d]pyrimidine-7(6H)-carboxamide], in series [1], the IC50 is 14.9 ± 0.29 nM.

For `CCC(=O)N1CCc2c(nc(-c3ccnc4[nH]ccc34)nc2N2CCOC[C@H]2C)C1` [ZH-2, (R)-1-(4-(3-methylmorpholino)-2-(1H-pyrrolo[2,3-b]pyridin-4-yl)-5,8-dihydropyrido[3,4-d]pyrimidin-7(6H)-yl)propan-1-one], the IC50 in series [1] was determined as 41.6 ± 1.38 nM.

On to `CCNC(=O)N1CCc2c(nc(-c3ccnc4[nH]ccc34)nc2N2CCOC[C@H]2C)C1` [ZH-11, (R)-N-ethyl-4-(3-methylmorpholino)-2-(1H-pyrrolo[2,3-b]pyridin-4-yl)-5,8-dihydropyrido[3,4-d]pyrimidine-7(6H)-carboxamide], for which the IC50 in series [1] was determined as 11.4 ± 0.25 nM.

`C[C@@H]1COCCN1c1nc(-c2cccc3[nH]ccc23)nc2c1CCN(C(=O)C1CCOCC1)C2` [ZH-13, (R)-(2-(1H-indol-4-yl)-4-(3-methylmorpholino)-5,8-dihydropyrido[3,4-d]pyrimidin-7(6H)-yl)(tetrahydro-2H-pyran-4-yl)methanone]: the IC50 in series [1] came out at 214.66 ± 0.04 nM.

As for `COCC(=O)N1CCc2c(nc(-c3ccnc4[nH]ccc34)nc2N2CCOC[C@H]2C)C1` [ZH-7, (R)-2-methoxy-1-(4-(3-methylmorpholino)-2-(1H-pyrrolo[2,3-b]pyridinedin-4-yl)-5,8-dihydropyrido[3,4-d]pyrimidin-7(6H)-yl)ethan-1-one], the melting point fell in the range of 294 to 296 °C. In addition, the IC50 in series [1] turned out to be 9.23 ± 0.16 nM. Also, in series [2], the IC50 turned out to be 25.6 ± 1.62 µM. Moreover, the IC50 in series [3] was 6770 ± 430 nM. In series [4], the IC50 came out at 6.02 ± 0.26 µM. In addition, the IC50 in series [5] turned out to be 5.71 ± 0.81 µM.

For the compound `CCCC(=O)N1CCc2c(nc(-c3ccnc4[nH]ccc34)nc2N2CCOC[C@H]2C)C1` [ZH-3, (R)-1-(4-(3-methylmorpholino)-2-(1H-pyrrolo[2,3-b]pyridin-4-yl)-5,8-dihydropyrido[3,4-d]pyrimidin-7(6H)-yl)butan-1-one], the IC50 in series [1] amounted to 42.5 ± 1.05 nM.

For the compound `N.N.[Cl][Pt][Cl]` [cisplatin, reference compound], the “tumor growth inhibition (TGI)” value in series [6] (cisplatin 6 mg/kg twice a week, alone) worked out at 26.1%.

Turning to `CCS(=O)(=O)N1CCc2c(nc(-c3ccnc4[nH]ccc34)nc2N2CCOC[C@H]2C)C1` [ZH-1, (R)-4-(7-(ethylsulfonyl)-2-(1H-pyrrolo[2,3-b]pyridin-4-yl)-5,6,7,8-tetrahydropyrido[3,4-d]pyrimidin-4-yl)-3-methylmorpholine], in series [1], the IC50 is 53.3 ± 1.08 nM.

Turning to `C[C@@H]1COCCN1c1cc(C2([S@](C)(=N)=O)CC2)nc(-c2cc[nH]c3nccc2-3)n1` [AZD6738, ceralasertib, reference compound], the “tumor growth inhibition (TGI)” value in series [6] (25 mg/kg twice daily, days 1-18, single agent, AZD6738 orally, ZH-12 intraperitoneally) was found to be 42.5%. Besides, the IC50 was determined as 6.6 ± 0.24 µM in series [2], 500 ± 60 nM in series [3], 4.32 ± 0.16 µM in series [4] and 0.41 ± 0.01 µM in series [5].

`C[C@@H]1COCCN1c1nc(-c2ccnc3[nH]ccc23)nc2c1CCN(C(=O)CO)C2` [ZH-6, (R)-2-hydroxy-1-(4-(3-methylmorpholino)-2-(1H-pyrrolo[2,3-b]pyridinedin-4-yl)-5,8-dihydropyrido[3,4-d]pyrimidin-7(6H)-yl)ethan-1-one] gave a melting point of 174 to 176 °C. In addition, in series [1], the IC50 worked out at 34.03 ± 0.27 nM.

Take `CC(C)CC(=O)N1CCc2c(nc(-c3ccnc4[nH]ccc34)nc2N2CCOC[C@H]2C)C1` [ZH-4, (R)-3-methyl-1-(4-(3-methylmorpholino)-2-(1H-pyrrolo[2,3-b]pyridin-4-yl)-5,8-dihydropyrido[3,4-d]pyrimidin-7(6H)-yl)butan-1-one]: the IC50 in series [1] was determined as 7.31 ± 0.16 nM; in series [2] it was 20.9 ± 1.21 µM; in series [3], 1740 ± 50 nM; in series [4], 5.17 ± 0.58 µM; in series [5] it was 18 ± 1.69 µM.

On to `C[C@@H]1COCCN1c1nc(-c2ccnc3[nH]ccc23)nc2c1CCN(C(=O)C1CC(=O)C1)C2` [ZH-9, (R)-3-(4-(3-methylmorpholino)-2-(1H-pyrrolo[2,3-b]pyridinedin-4-yl)-5,6,7,8-tetrahydropyrido[3,4-d]pyrimidine-7-carbonyl)cyclobutan-1-one], for which the melting point lay within 222 to 224 °C. Moreover, the IC50 in series [1] came to 16 ± 1.08 nM.

The compound `C[C@@H]1COCCN1c1nc(-c2ccnc3[nH]ccc23)nc2c1CCN(C(=O)C1CCC(=O)CC1)C2` [ZH-10, (R)-4-(4-(3-methylmorpholino)-2-(1H-pyrrolo[2,3-b]pyridinedin-4-yl)-5,6,7,8-tetrahydropyrido[3,4-d]pyrimidine-7-carbonyl)cyclohexan-1-one] had a melting point of 240 to 242 °C. In addition, the IC50 in series [1] is 27.5 nM and 11.9 nM.

As for `C[C@@H]1COCCN1c1nc(-c2ccnc3[nH]ccc23)nc2c1CCN(C(=O)C1CCOCC1)C2` [ZH-8, (R)-(4-(3-methylmorpholino)-2-(1H-pyrrolo[2,3-b]pyridin-4-yl)-5,8-dihydropyrido[3,4-d]pyrimidin-7(6H)-yl)(tetrahydro-2H-pyran-4-yl)methanone], the IC50 in series [1] amounted to 27.5 ± 1.04 nM.

With `C[C@@H]1COCCN1c1nc(-c2ccnc3[nH]ccc23)nc2c1CCN(C(=O)CC#N)C2` [ZH-5, (R)-3-(4-(3-methylmorpholino)-2-(1H-pyrrolo[2,3-b]pyridinedin-4-yl)-5,8-dihydropyrido[3,4-d]pyrimidin-7(6H)-yl)-3-oxopropanenitrile], the melting point was greater than 250 °C. In series [1], the IC50 was 11.3 nM and 10.8 nM.
